SMILES strings stand for the structures.

This experiment is described as follows: Expert panel taste evaluation (umami/salty) in chicken broth with or without added choline chloride. The settings on record: for Taste description, material alone: without choline chloride; for Taste description, with choline added: choline chloride 7 ppm final concentration. It counts as in vivo. How it is done:
The materials described below were evaluated at the concentration specified by an expert panel in a chicken broth (commercial Swanson chicken broth, with no MSG added, 50% reduced sodium 430 mg/serving) with or without added choline chloride (7 ppm final concentration).

Setting [1] is: 10 ppm in Swanson chicken broth, no MSG added, 50% reduced sodium.

As for `Cc1cc(O)c(C(=O)CCc2ccccn2)cc1C` [1-(2-hydroxy-4,5-dimethylphenyl)-3-(pyridin-2-yl)propan-1-one], under setting [1], the “Taste description, material alone” value is recorded as “Weak umami”. For the same molecule, the “Taste description, with choline added” value (10 ppm in chicken broth) is reported as “Better, stronger umami, saltier”.

For the molecule `CCCCCOc1ccc(C(=O)CCc2ccccn2)c(O)c1` [1-(2-hydroxy-4-(pentyloxy)phenyl)-3-(pyridine-2-yl)propan-1-one], for the setting “1 ppm in chicken broth”, the “Taste description, with choline added” value is “enhanced the saltiness and umami character with a well rounded taste profile”; the “Taste description, material alone” value was “salty and umami”.

`CC(C)COc1ccc(C(=O)CCc2ccccn2)c(O)c1` [1-(2-hydroxy-4-isobutoxyphenyl)-3-(pyridine-2-yl)propan-1-one]: where the note is “1 ppm in chicken broth”, the “Taste description, with choline added” value is “enhanced the saltiness and umami character with a well rounded taste profile”; the “Taste description, material alone” value was “Salty and umami”.

With `COc1ccc(C(=O)CCc2ccccn2)c(O)c1` [1-(2-hydroxy-4-methoxyphenyl)-3-(pyridin-2-yl)propan-1-one], under setting [1], the “Taste description, material alone” value is given as “Umami, lingering, body”. The “Taste description, with choline added” value (10 ppm in chicken broth) is listed as “enhancement of umami, enhancement of saltiness”.

Regarding `CC(C)=CCC/C(C)=C/CNC(=O)C1CC1` [(E)-N-(3,7-dimethylocta-2,6-dienyl)cyclopropanecarboxamide], for the setting “2 ppm in chicken broth”, the “Taste description, with choline added” value is recorded as “Very full, more salty, umami” and the “Taste description, material alone” value was “Umami, salty, not good aftertaste”.

On to `COc1cc(C)ccc1CNC(=O)C(=O)NCCc1ccccn1` [N-(2-methoxy-4-methylbenzyl)-N′-(2-(pyridin-2-yl)ethyl)oxalamide], for which, where the note is “0.5 ppm in chicken broth”, the “Taste description, with choline added” value was “more lingering umami, kokumi” and the “Taste description, material alone” value is listed as “lingering umami”.

The record behind these values is US20130302497A1, “Taste Enhancement” (Givaudan S.A., priority 2010, published 2013).
